Assay results from US11919965B2, “Methods of treating multiple myeloma with bispecific anti-BCMA x anti-CD3 antibodies” (Regeneron Pharmaceuticals, Inc., priority 2019, dated 2024).

Legend:
Assay type in all cases: in vivo, mouse
[1] = test system: established BCMA-expressing NCI-H929 multiple myeloma tumors; test: Xenogenic tumor model, established NCI-H929 tumors + human PBMC in NSG mice, treatment from day 5 (Example 12); conditions: for Average Tumor Size (mm3) ± SEM on Day 5: day of first dose
Protocol: To determine the in vivo efficacy of anti-BCMA×anti-CD3 bispecific antibodies (Abs), a xenogenic tumor study was performed. Immunodeficient NOD.Cg-Prkdc^scidII2rg^tm1Wjl/SzJ (NSG) mice were subcutaneously implanted with a mixture of 10×10^6 BCMA-expressing NCI-H929 human multiple myeloma tumor cells and 0.5×10^6 human peripheral blood mononuclear cells (PBMC) isolated from a normal, healthy donor. The tumors were allowed to grow and establish for 5 days until they were approximately 70 mm^3 in size. […] The mice were administered these Abs twice per week for a total of seven doses, and tumor growth was assessed over 55 days.
Implantation and measurement of xenogenic tumors: NSG mice were subcutaneously implanted with a mixture of 10×10^6 BCMA-expressing NCI-H929 multiple myeloma cells and 0.5×10^6 PBMC derived from a normal, healthy donor. The tumors were allowed to grow and establish for 5 days until they were approximately 70 mm^3 in size. […] The mice were administered Abs twice per week for a total of seven doses. Tumor growth was measured with calipers twice per week for the duration of the experiment.
(§1) Calculation of xenogenic tumor growth and inhibition: In order to determine tumor volume by external caliper, the greatest longitudinal diameter (length in mm) and the greatest transverse diameter (width in mm) were determined. Tumor volumes based on caliper measurements were calculated by the formula: Volume (mm^3)=(length× width^2)/2.

[2] = test system: BCMA-expressing NCI-H929 multiple myeloma tumors; test: Xenogenic tumor model, NCI-H929 + human PBMC s.c. in NSG mice, treatment from implantation (Example 10); conditions: 4 mg/kg
Protocol: To determine the in vivo efficacy of BCMA×CD3 bispecific antibodies (Abs), a xenogenic tumor study was performed. Immunodeficient NOD.Cg-Prkdc^scidII2rgtm1Wjl/SzJ (NSG) mice were subcutaneously implanted with a mixture of 10×10^6 BCMA-expressing NCI-H929 multiple myeloma cells and 0.5×10^6 human peripheral blood mononuclear cells (PBMC) isolated from a normal donor. […] The mice were administered Abs twice per week for a total of three weeks, and tumor growth was assessed over 40 days. While BCMA^+ tumors grew similarly in the vehicle-, isotype control-, and CD3-binding control-treated mice, both BCMA×CD3 Abs that were tested prevented the growth of tumors in vivo.
Implantation and measurement of syngeneic tumors: NSG mice were subcutaneously implanted with a mixture of 10×10^6 BCMA-expressing NCI-H929 multiple myeloma cells and 0.5×10^6 PBMC derived from a normal donor. […] The mice were administered Abs twice per week for a total of three weeks. Tumor growth was measured with calipers twice per week for the duration of the experiment. Mice were sacrificed 40 days after tumor implantation.
as §1, with “syngeneic” for “xenogenic”

[3] = test system: BCMA-expressing MOLP-8 multiple myeloma tumors; test: Xenogenic tumor model, MOLP-8 + human PBMC s.c. in NSG mice, dose response (Example 13)
Protocol: To determine the in vivo efficacy of anti-BCMA×anti-CD3 bispecific antibodies (Abs), a xenogenic tumor study was performed. Immunodeficient NOD.Cg-Prkdc^scidII2rg^tm1Wjl/SzJ (NSG) mice were subcutaneously implanted with a mixture of 5×10^6 BCMA-expressing MOLP-8 human multiple myeloma tumor cells and 1×10^6 human peripheral blood mononuclear cells (PBMC) isolated from a normal, healthy donor. […] The mice were administered these Abs twice per week for a total of seven doses, and tumor growth was assessed over 56 days. While the BCMA+ MOLP-8 tumors grew similarly in the vehicle- and CD3-binding control-treated mice, both BCMA×CD3 Abs that were tested prevented the growth of tumors in a dose-dependent manner in vivo.
Implantation and measurement of xenogenic tumors: NSG mice were subcutaneously implanted with a mixture of 5×10^6 BCMA-expressing MOLP-8 multiple myeloma cells and 1×10^6 PBMC derived from a normal, healthy donor. […] The mice were administered Abs twice per week for a total of seven doses. Tumor growth was measured by caliper twice per week for the duration of the experiment.
as §1

REGN5458: anti-BCMA×anti-CD3 bispecific antibody: mAb21581 BCMA heavy chain, mAb7221G CD3 heavy chain and common light chain; SEQ ID NOs 126, 127, 129
Average Tumor Size (mm3) ± SEM on Day 8 ([1]; 0.04 mg/kg): 130.3 ± 16.7 mm3
Average Tumor Size (mm3) ± SEM on Day 15 ([1]; 0.04 mg/kg): 1031.2 ± 164.3 mm3
Average Tumor Size (mm3) ± SEM on Day 19 ([1]; 0.04 mg/kg): 2467.5 ± 370.0 mm3
Average Tumor Size (mm3) ± SEM on Day 22 ([1]; 0.04 mg/kg): 3745.7 ± 541.2 mm3
Average Tumor Size (mm3) ± SEM on Day 27 ([1]; 0.04 mg/kg): 1589.1 ± 0 mm3
Average Tumor Size (mm3) ± SEM on Day 30 ([1]; 0.04 mg/kg): 2886.5 ± 0 mm3
Average Tumor Size (mm3) ± SEM on Day 5 ([1]; 0.04 mg/kg): 58.1 ± 5.6 mm3
Average Tumor Size (mm3) ± SEM on Day 8 ([1]; 0.4 mg/kg): 120.3 ± 16.3 mm3
Average Tumor Size (mm3) ± SEM on Day 12 ([1]; 0.4 mg/kg): 262.7 ± 61.6 mm3
Average Tumor Size (mm3) ± SEM on Day 15 ([1]; 0.4 mg/kg): 476.2 ± 133.5 mm3
Average Tumor Size (mm3) ± SEM on Day 19 ([1]; 0.4 mg/kg): 1347.5 ± 334.7 mm3
Average Tumor Size (mm3) ± SEM on Day 22 ([1]; 0.4 mg/kg): 2068.5 ± 465.0 mm3
Average Tumor Size (mm3) ± SEM on Day 27 ([1]; 0.4 mg/kg): 3463.9 ± 1025.0 mm3
Average Tumor Size (mm3) ± SEM on Day 30 ([1]; 0.4 mg/kg): 2144.2 ± 2144.2 mm3
Average Tumor Size (mm3) ± SEM on Day 35 ([1]; 0.4 mg/kg): 0 ± 0 mm3
Average Tumor Size (mm3) ± SEM on Day 40 ([1]; 0.4 mg/kg): 0 ± 0 mm3
Average Tumor Size (mm3) ± SEM on Day 55 ([1]; 0.4 mg/kg): 0 ± 0 mm3
Average Tumor Size (mm3) ± SEM on Day 5 ([1]; 0.4 mg/kg): 69.3 ± 7.3 mm3
Average Tumor Size (mm3) ± SEM on Day 8 ([1]; 4 mg/kg): 64.7 ± 16.4 mm3
Average Tumor Size (mm3) ± SEM on Day 12 ([1]; 4 mg/kg): 19.5 ± 10.9 mm3
Average Tumor Size (mm3) ± SEM on Day 15 ([1]; 4 mg/kg): 25.6 ± 19.2 mm3
Average Tumor Size (mm3) ± SEM on Day 19 ([1]; 4 mg/kg): 40.6 ± 32.8 mm3
Average Tumor Size (mm3) ± SEM on Day 22 ([1]; 4 mg/kg): 78.3 ± 60.8 mm3
Average Tumor Size (mm3) ± SEM on Day 30 ([1]; 4 mg/kg): 411.3 ± 307.2 mm3
Average Tumor Size (mm3) ± SEM on Day 35 ([1]; 4 mg/kg): 633.5 ± 473.5 mm3
Average Tumor Size (mm3) ± SEM on Day 40 ([1]; 4 mg/kg): 369.5 ± 369.5 mm3
Average Tumor Size (mm3) ± SEM on Day 55 ([1]; 4 mg/kg): 0 ± 0 mm3
Average Tumor Size (mm3) ± SEM on Day 5 ([1]; 4 mg/kg): 71.9 ± 10.3 mm3
Average Tumor Size (mm3) ± SEM on Day 4 [2]: 39.5 ± 9.1 mm3
Average Tumor Size (mm3) ± SEM on Day 7 [2]: 0 ± 0 mm3
Average Tumor Size (mm3) ± SEM on Day 11 [2]: 0 ± 0 mm3
Average Tumor Size (mm3) ± SEM on Day 14 [2]: 0 ± 0 mm3
Average Tumor Size (mm3) ± SEM on Day 18 [2]: 0 ± 0 mm3
Average Tumor Size (mm3) ± SEM on Day 21 [2]: 0 ± 0 mm3
Average Tumor Size (mm3) ± SEM on Day 28 [2]: 0 ± 0 mm3
Average Tumor Size (mm3) ± SEM on Day 40 [2]: 0 ± 0 mm3
Average Tumor Size (mm3) ± SEM on Day 3 ([3]; 0.04 mg/kg): 9.3 ± 2.4 mm3
Average Tumor Size (mm3) ± SEM on Day 7 ([3]; 0.04 mg/kg): 18.3 ± 5.0 mm3
Average Tumor Size (mm3) ± SEM on Day 10 ([3]; 0.04 mg/kg): 73.9 ± 25.7 mm3
Average Tumor Size (mm3) ± SEM on Day 14 ([3]; 0.04 mg/kg): 255.4 ± 79.7 mm3
Average Tumor Size (mm3) ± SEM on Day 17 ([3]; 0.04 mg/kg): 494.3 ± 144.3 mm3
Average Tumor Size (mm3) ± SEM on Day 21 ([3]; 0.04 mg/kg): 1373.0 ± 366.6 mm3
Average Tumor Size (mm3) ± SEM on Day 23 ([3]; 0.04 mg/kg): 1882.3 ± 551.5 mm3
Average Tumor Size (mm3) ± SEM on Day 28 ([3]; 0.04 mg/kg): 2542.5 ± 613.3 mm3
Average Tumor Size (mm3) ± SEM on Day 31 ([3]; 0.04 mg/kg): 2906.1 ± 532.6 mm3
Average Tumor Size (mm3) ± SEM on Day 35 ([3]; 0.04 mg/kg): 3538.0 ± 0.0 mm3
Average Tumor Size (mm3) ± SEM on Day 3 ([3]; 0.4 mg/kg): 13.5 ± 1.5 mm3
Average Tumor Size (mm3) ± SEM on Day 7 ([3]; 0.4 mg/kg): 1.0 ± 1.0 mm3
Average Tumor Size (mm3) ± SEM on Day 10 ([3]; 0.4 mg/kg): 0 ± 0 mm3
Average Tumor Size (mm3) ± SEM on Day 14 ([3]; 0.4 mg/kg): 0 ± 0 mm3
Average Tumor Size (mm3) ± SEM on Day 17 ([3]; 0.4 mg/kg): 1.7 ± 1.7 mm3
Average Tumor Size (mm3) ± SEM on Day 21 ([3]; 0.4 mg/kg): 5.3 ± 5.3 mm3
Average Tumor Size (mm3) ± SEM on Day 23 ([3]; 0.4 mg/kg): 9.7 ± 9.7 mm3
Average Tumor Size (mm3) ± SEM on Day 28 ([3]; 0.4 mg/kg): 47.4 ± 47.4 mm3
Average Tumor Size (mm3) ± SEM on Day 31 ([3]; 0.4 mg/kg): 104.7 ± 92.6 mm3
Average Tumor Size (mm3) ± SEM on Day 35 ([3]; 0.4 mg/kg): 375.1 ± 307.5 mm3
Average Tumor Size (mm3) ± SEM on Day 42 ([3]; 0.4 mg/kg): 968.8 ± 689.2 mm3
Average Tumor Size (mm3) ± SEM on Day 56 ([3]; 0.4 mg/kg): 1742.4 ± 635.2 mm3
Average Tumor Size (mm3) ± SEM on Day 3 ([3]; 4 mg/kg): 12.5 ± 1.3 mm3
Average Tumor Size (mm3) ± SEM on Day 7 ([3]; 4 mg/kg): 0 ± 0 mm3
Average Tumor Size (mm3) ± SEM on Day 10 ([3]; 4 mg/kg): 0 ± 0 mm3
Average Tumor Size (mm3) ± SEM on Day 14 ([3]; 4 mg/kg): 0 ± 0 mm3
Average Tumor Size (mm3) ± SEM on Day 17 ([3]; 4 mg/kg): 14.5 ± 7.3 mm3
Average Tumor Size (mm3) ± SEM on Day 21 ([3]; 4 mg/kg): 102.7 ± 66.2 mm3
Average Tumor Size (mm3) ± SEM on Day 23 ([3]; 4 mg/kg): 193.3 ± 117.7 mm3
Average Tumor Size (mm3) ± SEM on Day 28 ([3]; 4 mg/kg): 627.4 ± 318.1 mm3
Average Tumor Size (mm3) ± SEM on Day 31 ([3]; 4 mg/kg): 1018.5 ± 498.3 mm3
Average Tumor Size (mm3) ± SEM on Day 35 ([3]; 4 mg/kg): 1342.9 ± 629.6 mm3
Average Tumor Size (mm3) ± SEM on Day 42 ([3]; 4 mg/kg): 2363.0 ± 890.2 mm3
Average Tumor Size (mm3) ± SEM on Day 49 ([3]; 4 mg/kg): 1683.5 ± 1683.5 mm3
Average Tumor Size (mm3) ± SEM on Day 56 ([3]; 4 mg/kg): 3108.1 ± 3108.1 mm3
